# Assay results from article PMC12362433, “Systematic Determination of the Impact of Structural Edits on Peptide Accumulation into Mycobacteria” (ACS Chemical Biology, 2025).
# Bridge positions count the residues as written; N and C are the ends. Square brackets hold non-standard residues; d marks the D form. Peptide text beside a SMILES is read from it. * marks the point of attachment. Lys(N3) = [N-]=[N+]=NCCCC[C@H](N)C(=O)O; Azidoacetyl = [N-]=[N+]=NCC(=O)*; NMeF = CN[C@@H](Cc1ccccc1)C(=O)O; NMeT = CN[C@H](C(=O)O)[C@@H](C)O; NMeL = CN[C@@H](CC(C)C)C(=O)O; dNMeL = CN[C@H](CC(C)C)C(=O)O; NMeK = CN[C@@H](CCCCN)C(=O)O; NMeV = CN[C@H](C(=O)O)C(C)C
# Legend:
# [1] = Serum stability assay in mouse serum; type: in vitro ADME
# Procedure: Serum stability assay. Time course degradation in mouse serum was evaluated for peptides Lin0, Cyc0, Nmet0 and Nmet9. Compounds were incubated in mouse serum at a concentration of 1.0 mM to a total of 200 μL at 37 °C. At each time point (0, 15, 30, 60 min), 4 0 μL of the solution was aliquoted and diluted in a 1:1 solution o f H2O/CH3CN (101 μL) containing trichloroacetic acid (9 μL) and 100 μM of internal standard Fm o c -L-phenylalanine. This mixture was incubated in ice for 5 min to precipitate serum proteins.
# The samples were then centrifuged at 21,000×g for 5 min. 140 μL of the supernatant was then transferred to a filter tube and centrifuged again at 21,000× g for 5 min to filter. 110 μL of the filtrate was then analyzed using Phenomenex Luna 5 µm C8(2) on RP-HPLC; gradient elution in H2O/CH 3CN with 0.1% TFA at 1 mL/min. Peptide identity was confirmed via peak collection and subsequent matrix-assisted laser desorption ionization time-of-flight (MALDI-TOF) mass spectroscopy (Shimadzu 8020). To eliminate variations in the overall signal intensity, area under the curve (AUC) for the peptides of interest at each time point was normalized to the AUC of the internal standard Fm o c -L-phenylalanine, the concentration of which was predetermined. These normalized AUC values were then further normalized to the “0 min” time point which was set to 100%. […]
# [2] = test system: Msm cells; conditions: 25 μM TetD labeling; microscopy and EtBr accumulation/efflux
# Procedure: Ethidium bromide (EtBr) whole-cell accumulation assay. To a 96-well plate, 90 µL of
# T etD -modified Msm cells were added in triplicate. Next, 5 µL of 1 mM peptide stock
# solutions were added to yield a final concentration of 50 µM. The volume in each well was
# made up to 100 µL using PBS. To the blank and PBS control wells, 10 µL of PBS was
# added at this point. For the blank wells, 90 µL of unlabeled cells were added in triplicate.
# The plates were then incubated at 37 °C for the same duration as the corresponding PAC -
# MAN assay incubation duration for that library. The cells were centrifuged for 2 min at
# 3000× g, and the supernatant was discarded. The pellets were then washed with 100 µL
# PBST twice and finally resuspended in 100 µL of PBST. 95 µL of these cells were then
# transferred to corresponding wells in a 96 -well, black, flat-bottomed plate. To each well,
# 5 µL of 100 µM EtBr (5 µM final) was added. The fluorescent intensities were measured
# by a Biotek Synergy H1 microplate reader 60 m post -treatment with EtBr, with continuous
# orbital shaking. Wavelengths: ethidium bromide, excitation 530 nm/emission 590 nm.
# [3] = test system: Msm; type: cell-based, Mycobacterium smegmatis; conditions: against Msm; for MIC value: 48 h, three biological replicates
# Procedure: Minimum inhibitory concentration (MIC) assay. Msm cells were inoculated from the glycerol stock to the according media and grown for 24 hours until 0.5- 0.6 OD. Testing peptides were dissolved in the 7H9 growth media mentioned above and made into serial dilutions from 128 µM. 200 µL of each concentration was added to a deep well 96-well plate – with each concentration added in triplicates. The cells were diluted […] to OD of around 0.05 with fresh 7H9 growth media. […] of diluted cells were added to the deep well plate each well and mixed well with the peptide solution. The plate was covered by an adhesive porous film and incubated at 37 °C with shaking at 250 rpm for 48 h. The contents from each well were then transferred to a flat-bottom 96-well plate for MIC value determination. MIC values were determined both visually and readings of OD (wells OD < 0.1) from a Biotek Synergy H1 microplate reader at 600 nm.
Compound,MIC value [3],also measured
CC(=O)N[C@@H](CCCCN=[N+]=[N-])C(=O)N[C@@H](CC(C)C)C(=O)N[C@@H](CO)C(=O)N[C@@H](CCCCN)C(=O)N[C@@H](CO)C(=O)N[C@@H](Cc1ccccc1)C(N)=O [Lin0] (Ac-[Lys(N3)]LSKSF-NH2),–,time to full degradation in serum [1]: ≤ 1 h
CC(C)C[C@@H](C(=O)N(C)[C@@H](CCCCN)C(=O)N(C)[C@@H](CC(C)C)C(=O)N(C)[C@@H](Cc1ccccc1)C(N)=O)N(C)C(=O)[C@H](CCCCN)N(C)C(=O)CN=[N+]=[N-] [Nmet5] (Azidoacetyl-[NMeK][NMeL][NMeK][NMeL][NMeF]-NH2),–,"serum stability (in words) ([1]; mouse serum, 37 °C, over 1 h): considerably greater serum stability than peptide Nmet0"
C[C@H](NC(=O)CCC(=O)N1Cc2ccccc2C#Cc2ccccc21)C(=O)N[C@H](CCC(=O)N[C@@H](CCCCN)C(=O)N[C@H](C)C(=O)O)C(N)=O [TetD],–,cell morphology and cell envelope integrity after labeling [2]: no significant changes in cell morphology or cell envelope integrity
CC(C)C[C@@H]1NC(=O)[C@@H]2CCCN2C(=O)[C@H](CC(C)C)NC(=O)[C@@H](NC(=O)[C@@H]2CCCN2C(=O)[C@@H](NC(=O)CN=[N+]=[N-])C(C)C)[C@@H](C)OC(=O)CNC(=O)[C@@H](CC(C)C)NC(=O)[C@@H]2CCCN2C(=O)[C@H](C(C)C)NC1=O [grisCyc] (Azidoacetyl-VPTLPLVP[dL]G; ester 3-C),> 64 µM,–
CC(C)C[C@H](NC(=O)[C@@H]1CCCN1C(=O)[C@H](CC(C)C)NC(=O)[C@@H](NC(=O)[C@@H]1CCCN1C(=O)[C@@H](NC(=O)CN=[N+]=[N-])C(C)C)[C@@H](C)O)C(=O)N[C@H](C(=O)N1CCC[C@H]1C(=O)N[C@H](CC(C)C)C(=O)NCC(N)=O)C(C)C [grisLin] (Azidoacetyl-VPTLPLVP[dL]G-NH2),> 64 µM,–
CC(C)C[C@@H]1NC(=O)[C@@H]2CCCN2C(=O)[C@H](CC(C)C)NC(=O)[C@@H](N(C)C(=O)[C@@H]2CCCN2C(=O)[C@H](C(C)C)N(C)C(=O)CN=[N+]=[N-])[C@@H](C)OC(=O)CNC(=O)[C@@H](CC(C)C)N(C)C(=O)[C@@H]2CCCN2C(=O)[C@H](C(C)C)N(C)C1=O [grisMeCyc] (Azidoacetyl-[NMeV]P[NMeT]LPL[NMeV]P[dNMeL]G; ester 3-C),2 µM,–
CC(C)C[C@H](NC(=O)[C@@H]1CCCN1C(=O)[C@H](CC(C)C)NC(=O)[C@H]([C@@H](C)O)N(C)C(=O)[C@@H]1CCCN1C(=O)[C@H](C(C)C)N(C)C(=O)CN=[N+]=[N-])C(=O)N(C)[C@H](C(=O)N1CCC[C@H]1C(=O)N(C)[C@H](CC(C)C)C(=O)NCC(N)=O)C(C)C [grisMeLin] (Azidoacetyl-[NMeV]P[NMeT]LPL[NMeV]P[dNMeL]G-NH2),> 64 µM,fold increase in MIC value relative to grisMeCyc ([3]; loss of macrocyclization): > 32 fold
